Measured values from US20240327351A1, “AMIDE AND ETHER SUBSTITUTED N-(1H-INDOL-7-YL)BENZENESULFONAMIDES AND USES THEREOF” (TRIANA BIOMEDICINES, INC., priority 2021, published 2024).

Tests used:
[1] = target: DCAF15/RBM39 (Homo sapiens, UniProt Q14498+Q66K64); experiment: AlphaLISA compound-induced DCAF15-RBM39 ternary complex formation; format: binding; details: His-tagged DCAF15 complex and biotin-carrying RBM39
Experimental: Example 6: Quantitative Evaluation of Compound-Induced Ternary Complex Formation Using Amplified Luminescent Proximity Homogeneous Assay
Compound-induced DCAF15-RBM39 ternary complex formation was monitored using AlphaLISA® assays (Perkin Elmer, Waltham, MA). Test compounds were first collected in a 384-well microplate (cat. #781280, Grenier Bio-One, Monroe, NC) as 2 mM stocks in 100% dimethyl sulfoxide (DMSO). These stocks were then serially diluted in DMSO by 3-fold into a new plate (cat. #781280, Grenier Bio-One, Monroe, NC) using a Mosquito HTS dispenser (mosquito@ HTS, SPT Labtech, Boston, MA). 0.2 ul of these diluted stocks were then dispensed into a 384-well Optiplate (cat. #6007290, Perkin Elmer, Waltham, MA) in duplicate wells, to assemble the final assay plate consisting of duplicated dose ranges. Separately, a protein mixture consisting of His-tagged DCAF15 complex and biotin-carrying RBM39, each at 408 nM (2.04×), was prepared in 50 mM HEPES, pH 7.5, 100 mM NaCl, 2 mM MgCl2, 0.1% BSA, 2 mM TCEP, 0.05% Tween-20 (dilution buffer). 9.8 ul of this protein mixture was then mixed with the compounds in the assay plate and incubated for one hour at room temperature. Reaction mixtures with no compounds added were included as negative controls, while a His-tagged and biotinylated GST protein was included to track general assay performance. Nickel Chelate AlphaLISA Acceptor beads (cat. #AL108M, Perkin Elmer, MA) and AlphaScreen Streptavidin Donor beads (cat. #6760002, Perkin Elmer, Waltham, MA) were prepared separately in the dilution buffer as 4× stocks (80 ug/ml). The beads were then added to the assay plate sequentially with incubation at room temperature for 1-2 hours after each addition. Signals were recorded using EnVision 2104 Multilabel Plate Reader (Perkin Elmer, Waltham, MA) and titration curves were generated in GraphPad Prism (7.00, GraphPad, La Jolla, CA).

[2] = target: DCAF15 (Homo sapiens, UniProt Q66K64); experiment: HTRF competition assay, binary interaction between compounds and DCAF15; format: binding; details: competition with Alexa Fluor 647 tracer, His-tagged DCAF15 complex
Experimental: Example 7: Measurement of Binary Interaction Between Compounds And DCAF15 Using Homogeneous Time Resolved Fluorescence (HTRF)
DCAF15 interactions with test compounds were monitored using HTRF competition assays (Cisbio, Bedford, MA). Test compounds were first collected in a 384-well microplate (cat. #781280, Grenier Bio-One, Monroe, NC) as 10 mM stocks in 100% dimethyl sulfoxide (DMSO). A second stock plate (cat. #781280, Grenier Bio-One, Monroe, NC) was prepared through 3-fold serial dilution in DMSO of the afore-mentioned stocks using a Mosquito HTS dispenser (mosquito@ HTS, SPT Labtech, Boston, MA). 0.2 ul of these diluted stocks were then dispensed into a 384-well Optiplate (cat. #6007290, Perkin Elmer, Waltham, MA) in duplicate wells, to assemble the assay plate. The tracer molecule containing an Alexa Fluor 647 probe was prepared in 25 mM HEPES pH 7.5, 100 mM NaCl, 0.1 mg/ml BSA, 0.005% Tween 20, 0.5 mM TCEP (dilution buffer) to 612 nM (2.04×). Separately, His-tagged DCAF15 complex was prepared at 32 nM (4×) in the dilution buffer, and mAb Anti-6His-Eu cryptate Gold (cat. #61H12KLA, Cisbio, Bedford, MA) at 4× dilution in the detection buffer (cat. #61 DB9RDF, Cisbio, Bedford, MA). These two solutions were mixed and incubated for 15 min at room temperature. 9.8 ul of the tracer solution and 10 ul of the DCAF15/mAb Anti-6His-Eu cryptate Gold mixture were added sequentially to each well in the assay plate. Reaction mixtures with no DCAF15 added were included as positive controls. The final mixture was incubated for an hour at room temperature and spun down briefly before data collection at 615 nm and 666 nm using En Vision 2104 Multilabel Plate Reader (Perkin Elmer, Bedford, MA). Binding was estimated based on ratiometric analysis and titration curves were generated in GraphPad Prism (7.00, GraphPad, La Jolla, CA).

| EC50 [1] [µM] | IC50 [2] [µM] | Structure (SMILES) |
| --- | --- | --- |
| 1 to 10 | – | Nc1ccc(S(=O)(=O)Nc2cnc3c(Cl)cccc3n2)cc1 [CQS, cloroquinoxaline sulfonamide, reference compound] |
| < 1 | 1 to 10 | NC1CCC(Oc2ccc(S(=O)(=O)Nc3ccc(Cl)c4c(Cl)c[nH]c34)cc2)CC1 (centres unmarked) [Compound 3] |
| < 1 | 1 to 10 | N[C@H]1CC[C@H](Oc2ccc(S(=O)(=O)Nc3ccc(Cl)c4c(Cl)c[nH]c34)cc2)CC1 [Compound 5] |
| < 1 | 10 to 100 | N[C@@H]1CCC[C@@H](Oc2cccc(S(=O)(=O)Nc3ccc(Cl)c4c(Cl)c[nH]c34)c2)C1 [Compound 6] |
| < 1 | 1 to 10 | N[C@@H]1CCC[C@@H](Oc2ccc(S(=O)(=O)Nc3ccc(Cl)c4c(Cl)c[nH]c34)cc2)C1 [Compound 7] |
| > 100 | > 100 | O=C(N[C@@H]1CCC[C@@H](Oc2ccc(S(=O)(=O)Nc3ccc(Cl)c4c(Cl)c[nH]c34)cc2)C1)OCc1ccccc1 [Compound 13] |
| 1 to 10 | 1 to 10 | NC[C@H]1CC[C@H](Oc2ccc(S(=O)(=O)Nc3ccc(Cl)c4c(Cl)c[nH]c34)cc2)CC1 [Compound 15] |
| < 1 | 1 to 10 | O=S(=O)(Nc1ccc(Cl)c2c(Cl)c[nH]c12)c1cccc(O[C@H]2CC[C@H](N3CCOCC3)CC2)c1 [Compound 16] |
| < 1 | 10 to 100 | O=S(=O)(Nc1ccc(Cl)c2c(Cl)c[nH]c12)c1ccc(O[C@H]2CC[C@H](N3CCOCC3)CC2)cc1 [Compound 17] |
| > 100 | > 100 | O=S(=O)(Nc1ccc(Cl)c2c(Cl)c[nH]c12)c1cccc(O[C@H]2CC[C@H](OCc3ccccc3)CC2)c1 [Compound 18] |
| > 100 | > 100 | O=S(=O)(Nc1ccc(Cl)c2c(Cl)c[nH]c12)c1ccc(O[C@H]2CC[C@H](OCc3ccccc3)CC2)cc1 [Compound 19] |
| 1 to 10 | > 100 | O=S(=O)(Nc1ccc(Cl)c2c(Cl)c[nH]c12)c1cccc(O[C@@H]2C[C@@H]3C[C@@H]3C2)c1 [Compound 20] |
| 1 to 10 | > 100 | O=S(=O)(Nc1ccc(Cl)c2c(Cl)c[nH]c12)c1ccc(O[C@@H]2C[C@@H]3C[C@@H]3C2)cc1 [Compound 21] |
| < 1 | 1 to 10 | CC1(Oc2ccc(S(=O)(=O)Nc3ccc(Cl)c4c(Cl)c[nH]c34)cc2)CCNCC1 [Compound 22, N-(3,4-dichloro-1H-indol-7-yl)-4-((4-methylpiperidin-4-yl)oxy)benzenesulfonamide] |
| < 1 | 1 to 10 | CC1(Oc2ccc(S(=O)(=O)Nc3ccc(Cl)c4c(Cl)c[nH]c34)cc2)CCN(CCO)CC1 [Compound 23, N-(3,4-dichloro-1H-indol-7-yl)-4-((1-(2-hydroxyethyl)-4-methylpiperidin-4-yl)oxy)benzenesulfonamide] |
| < 1 | 1 to 10 | CN1CC2(CC(Oc3ccc(S(=O)(=O)Nc4ccc(Cl)c5c(Cl)c[nH]c45)cc3)C2)C1 [Compound 24, N-(3,4-dichloro-1H-indol-7-yl)-4-((2-methyl-2-azaspiro[3.3]heptan-6-yl)oxy)benzenesulfonamide] |
| < 1 | 1 to 10 | O=S(=O)(Nc1ccc(Cl)c2c(Cl)c[nH]c12)c1ccc(OC2CC3(CNC3)C2)cc1 [Compound 25, 4-((2-azaspiro[3.3]heptan-6-yl)oxy)-N-(3,4-dichloro-1H-indol-7-yl)benzenesulfonamide] |
| < 1 | 10 to 100 | O=S(=O)(Nc1ccc(Cl)c2c(Cl)c[nH]c12)c1cccc(OC2CCC3(CC2)CNC3)c1 [Compound 26] |
| 1 to 10 | 1 to 10 | O=S(=O)(Nc1ccc(Cl)c2c(Cl)c[nH]c12)c1ccc(OC2CCC3(CC2)CNC3)cc1 [Compound 27] |
| 1 to 10 | 10 to 100 | O=S(=O)(Nc1ccc(Cl)c2c(Cl)c[nH]c12)c1cccc(OC2CCC3(CCNCC3)CC2)c1 [Compound 32] |

| EC50 [1] [µM] | IC50 [2] [µM] | Structure (SMILES) |
| --- | --- | --- |
| 1 to 10 | > 100 | O=S(=O)(Nc1ccc(Cl)c2c(Cl)c[nH]c12)c1ccc(Oc2ccccc2)c(Cl)c1 [Compound 34] |
| 10 to 100 | > 100 | O=S(=O)(Nc1ccc(Cl)c2c(Cl)c[nH]c12)c1ccc(Oc2ccc(Br)cc2)cc1 [Compound 35] |
| 1 to 10 | 10 to 100 | O=S(=O)(Nc1ccc(Cl)c2c(Cl)c[nH]c12)c1ccc(Oc2ccc(F)cc2)cc1 [Compound 36] |
| 1 to 10 | > 100 | N#Cc1ccc(Oc2ccc(S(=O)(=O)Nc3ccc(Cl)c4c(Cl)c[nH]c34)cc2)cc1 [Compound 37] |
| < 1 | 1 to 10 | O=S(=O)(Nc1ccc(Cl)c2c(Cl)c[nH]c12)c1ccc(OC(F)F)c(F)c1 [Compound 38] |
| < 1 | > 100 | O=S(=O)(Nc1ccc(Cl)c2c(Cl)c[nH]c12)c1ccc(OCC2COC2)cc1 [Compound 40] |
| < 1 | 1 to 10 | CN1CC[C@@H](c2ccc(F)cc2)[C@H](COc2cccc(S(=O)(=O)Nc3ccc(Cl)c4c(Cl)c[nH]c34)c2)C1 [Compound 41] |
| 1 to 10 | 1 to 10 | CN1CC[C@@H](c2ccc(F)cc2)[C@H](COc2ccc(S(=O)(=O)Nc3ccc(Cl)c4c(Cl)c[nH]c34)cc2)C1 [Compound 42] |
| 1 to 10 | > 100 | CCOc1cc(N2CCC[C@H](COc3cccc(S(=O)(=O)Nc4ccc(Cl)c5c(Cl)c[nH]c45)c3)C2)ncn1 [Compound 43] |
| 1 to 10 | > 100 | CCOc1cc(N2CCC[C@H](COc3ccc(S(=O)(=O)Nc4ccc(Cl)c5c(Cl)c[nH]c45)cc3)C2)ncn1 [Compound 44] |
| < 1 | 10 to 100 | O=S(=O)(Nc1ccc(Cl)c2c(Cl)c[nH]c12)c1cccc(OC[C@@H]2CCCNC2)c1 [Compound 45] |
| 1 to 10 | 10 to 100 | O=S(=O)(Nc1ccc(Cl)c2c(Cl)c[nH]c12)c1ccc(OC[C@@H]2CCCNC2)cc1 [Compound 46] |
| < 1 | 10 to 100 | O=S(=O)(Nc1ccc(Cl)c2c(Cl)c[nH]c12)c1cccc(OC[C@H]2[C@@H]3CNC[C@@H]32)c1 [Compound 47] |
| < 1 | 10 to 100 | O=S(=O)(Nc1ccc(Cl)c2c(Cl)c[nH]c12)c1ccc(OC[C@H]2[C@@H]3CNC[C@@H]32)cc1 [Compound 48] |
| 1 to 10 | > 100 | O=C(OCc1ccccc1)N1C[C@@H]2[C@@H](COc3cccc(S(=O)(=O)Nc4ccc(Cl)c5c(Cl)c[nH]c45)c3)[C@@H]2C1 [Compound 49] |
| > 100 | > 100 | O=C(OCc1ccccc1)N1C[C@@H]2[C@@H](COc3ccc(S(=O)(=O)Nc4ccc(Cl)c5c(Cl)c[nH]c45)cc3)[C@@H]2C1 [Compound 50] |
| 1 to 10 | > 100 | O=S(=O)(Nc1ccc(Cl)c2c(Cl)c[nH]c12)c1cccc(OCc2cccc(OC(F)F)c2)c1 [Compound 53] |
| 1 to 10 | > 100 | O=S(=O)(Nc1ccc(Cl)c2c(Cl)c[nH]c12)c1ccc(OCc2cccc(OC(F)F)c2)cc1 [Compound 54] |
| < 1 | – | NS(=O)(=O)c1ccc(S(=O)(=O)Nc2cccc3c(Cl)c[nH]c23)cc1 [Indisulam, indisulam, reference compound] |
| 1 to 10 | – | O=C(NS(=O)(=O)c1ccc(Br)s1)c1ccc(Cl)cc1Cl [Tasisulam, tasisulam, reference compound] |
